In patent publication US8470765B2, “Polypeptides and antibacterial or antiseptic use of same” (AnGes MG, Inc., priority 2009, dated 2013):

Legend:
[1] = tested on: Pseudomonas aeruginosa (P. aeruginosa ATCC27853); assay: ATP assay (BacTiter-Glo) viability, Table 2; type: cell-based; conditions: ATCC27853, 3 h, read-out: Viability (%) P. aeruginosa
Description: (§1) The antibacterial activity of the polypeptides was measured using the ATP assay method.
(§2) Using BacTiter-Glo Microbial Cell Viability Assay kit available from PROMEGA, the antibacterial activity of the peptides was evaluated from the viability of bacteria. That is, ATP amount in viable bacteria in cases where the concentration of the peptides was 10 μg/ml, was measured using a microtiter plate or test tubes.
(§3) With respect to the strains, Staphylococcus aureus (S. aureus ATCC29213) as Gram-positive bacteria, or, alternatively, Pseudomonas aeruginosa (P. aeruginosa ATCC27853) as Gram-negative bacteria, was used. The bacteria were cultured in media for 3 to 4 hours, and thereafter absorbances at A600 were measured. Bacterial suspensions were diluted with Mueller-Hinton broth (MHB) according to McFarland #0.5. Each strain was added so as to attain about 0.5-1×10^5 CFU/mL (final concentration) in terms of Escherichia coli. Each peptide was prepared and added to a microplate or test tubes so as to attain a final concentration of […], and the bacterial suspension was added thereto. […] The plate was incubated at 37° C. for 3 hours, and the amount of ATP in the culture media was measured. Relative values were calculated by comparison with the negative control, and these values were regarded as the viability.

[2] = tested on: Staphylococcus aureus (S. aureus ATCC29213); assay: ATP assay (BacTiter-Glo) viability, Table 2; type: cell-based; conditions: ATCC29213, 3 h, read-out: Viability (%) S. aureus
Description: as §1, §2, §3

What does the source list for `NC[C@H]1O[C@H](O[C@H]2[C@H](O)[C@@H](O[C@H]3O[C@H](CO)[C@@H](O)[C@H](N)[C@H]3O)[C@H](N)C[C@@H]2N)[C@H](N)C[C@@H]1O` [tobramycin, reference compound]?
viability at 1 µg/mL [1]: 1.8%; viability at 1 µg/mL [2]: 3.6%
